This is an account of results in patent US20260272908A1 (VANDERBILT UNIVERSITY, priority 2023, published 2026).

Test [1] has as its system Meta4 organoids. As to the kind of experiment: Meta4 dysplastic organoid growth and cell death (organoid diameter, phase-contrast, H&E, live/dead staining). The format is cell-based, mouse. Particulars: pyrvinium 100 nM, SSTC3 0.2-1 μM, STAT3-IN-1 1 μM, Sttatic 2 μM, 3 days; for cell death: trametinib 1 μM. How it is done: (§1) All experiments were repeated at least three times.
(§2) All experiments were performed at least in triplicate.

In test [2] the test system is Meta3 organoids. As to the kind of experiment: Meta3 metaplastic organoid growth and survival (organoid diameter, phase-contrast). Particulars: STAT3-IN-1 1 μM, Sttatic 2 μM, CPT 5 μM, 3 days. In kind it is cell-based, mouse. How it is done:
as §1, §2

The subject of test [3] is human pre-cancerous organoid (hPCO) lines. As to the kind of experiment: Human precancerous organoid (hPCO) growth and organoid death. Particulars: STAT3 inhibitors; for response (growth and survival): pyrvinium-resistant hPCO-31.
Experimental: To establish human pre-cancer organoids (hPCO), fresh tissues were obtained from the gastric cancer patients who underwent curative gastrectomy at SNUH (IRB No. H-1806-166-954).
Meta3, Meta4, and hPCO organoids were cultured in Matrigel (ECM, Sigma) with Mouse or Human IntestiCult medium (StemCell Technology) supplemented with 1% of penicillin/streptomycin (Gibco) in 48-well plates and medium was replaced every 3 days. The organoids were split every 5-7 days before they formed budding structures.
Mouse or human organoids were split and cultured in the Mouse or Human IntestiCult media for 1-2 days until they formed three-dimensional (3D) spherical structures, then the media was switched to media containing either DMSO vehicle or a certain concentration of each drug and cultured for 3 days. The EVOS M7000 inverted microscope were used to obtain phase contrast images of organoids. All experiments were repeated at least three times.
The number and diameters of mouse and human organoids treated with drugs were manually counted and measured at day 0 and 3 or 6 after treatment from four entire well images of each condition at 4× magnification. For counting live or dead cells, organoids were stained with Calcein AM for live cells and EthD-1 for dead cells 3 days after treatment and the number of EthD-1 positive organoids were manually counted from images taken from three wells of each condition at 4× magnification. All experiments were performed at least in triplicate. The mean values from each condition were compared by Student's paired or unpaired t-test using Graphpad Prism. *P<0.05, **P<0.01, ***P<0.001, ****P<0.0001.
For test [4], the system named is phospho-STAT3 (p-STAT3). As to the kind of experiment: Western blot for phospho-STAT3 in Meta3 and Meta4 organoids. The format is cell-based, mouse. Particulars: Meta4; 3 days. How it is done: (§3) FIG. 3C-3D show the Western blot analysis for p-STAT3 and p-ERK in Meta3 and Meta4 organoids (FIG. 3C) and ratios of p-STAT3/total STAT3 and p-ERK/total ERK (FIG. 3D). […] FIG. 3F-3G show phase-contrast images of Meta4 organoids treated with DMSO, Pyr (100 nM), STAT3-IN-1 (1 μM), Stattic (2 μM), and Cryptotanshinone (CPT) (5 μM) for 3 days (FIG. 3F), and quantitation of organoid diameters before and after treatment (FIG. 3G). FIG. 3H-3I show phase-contrast images of Meta4 organoids treated with DMSO, trametinib (Tra), STAT3-IN-1, combination of Tra and STAT3-IN-1, and Pyr, for 3 days (FIG. 3H), and quantitation of organoid diameters before and after treatment (FIG. 3I). FIG. 3J-3K show western blot for p-STAT3 and p-ERK after treatment of Tra, Pyr, and SSTC3 (FIG. 3J) and ratios of p-STAT3/t-STAT3 and p-ERK/t-ERK (FIG. 3K). […] Relative quantification of each gene expression level was normalized to GAPDH gene expression. Shading scale represents the mRNA expression values. FIG. 3M show representative mRNA of Pim-1 and Cyclin-B1 after treatment. Mean±standard deviation. […] Scale bar=500 μM.
(§4) Total proteins were extracted from organoids using radioimmunoprecipitation assay buffer (10 mmol/L Tris-HC, pH 7.2, 150 mmol/L NaCl, 5 mmol/L EDTA, 0.1% sodium dodecyl sulfate, 1.0% Triton X-100, 1% deoxycholate) with protease inhibitors. The protein concentration was measured The Bio-Rad Protein Assay (Bio-Rad Laboratories, Hercules, CA). 5 to 10 μg of total protein was loaded onto 12.5% or 10% sodium dodecyl sulfate/polyacrylamide gel electrophoresis (PAGE) and transferred onto polyvinylidene difluoride membranes (Millipore, Billerica, MA). […] After washes with TBS-T, chemiluminescence was detected with an Amersham Imager 680 instrument (GE Healthcare) after 1 mL of the SuperSignal West Femto Maximum Sensitivity Substrate (ThermoFisher) was applied to the membranes.
Background: In western blotting, separated proteins are transferred to a membrane and probed.

The test system of test [5] is phospho-ERK (p-ERK). As to the kind of experiment: Western blot for phospho-ERK in Meta3 and Meta4 organoids. In kind it is cell-based, mouse. Particulars: Meta4; 3 days. How it is done: as §3, §4
Setting [6] is: pyrvinium-sensitive hPCO-2 line.

Regarding `O=[N+]([O-])c1ccc2c(c1)S(=O)(=O)C=C2` [Sttatic], in test [1], the “organoid size / growth” value is on record as “induced growth arrest” and the cell death entry was “did not lead to cell death”. The “survival and growth of organoids” value in test [2] was “no influence on the survival and growth”. In addition, the “response (growth and survival)” value in test [3] is “did not respond”. For the same molecule, in test [3] (setting [6]), the organoid survival entry is “survived until 6 days after the treatment”. Besides, in test [3] (pyrvinium-sensitive hPCO-2 line, 6 days), the organoid growth result was “arrested organoid growth”.
In the case of `COc1cc(/C=C/c2ccc(NC(=O)/C=C/c3cc(OC)c(OC)c(OC)c3)cc2)cc(OC)c1` [STAT3-IN-1], in test [1], the “organoid size / growth” value was “induced growth arrest” and the cell death result is “did not lead to cell death”. In addition, the “survival and growth of organoids” value in test [2] is “no influence on the survival and growth”. The “response (growth and survival)” value in test [3] is on record as “did not respond”. Besides, the organoid survival result in test [3] (setting [6]) is on record as “survived until 6 days after the treatment”.
Turning to `CN(c1ccc(C(F)(F)F)cc1)S(=O)(=O)c1ccc(C(=O)Nc2nc(-c3ccccn3)cs2)cc1` [SSTC3], in test [1], the “organoid size / growth” value is reported as “did not cause any growth suppression or cell death” and the cell death entry is on record as “did not cause any growth suppression or cell death”. Further, in test [4], the “phosphorylation of STAT3^Y705” value was “did not reduce”. For the same molecule, the p-ERK levels result in test [5] is “did not reduce”.
